What all share (assay type): physicochemical
Data set [1] is described as follows: Methotrexate release from PCL discs. The settings on record: high MePEG concentrations. On the procedure: A known weight of a polymer (typically a 2.5 mg pellet) is added to a 15 ml test tube containing 14 ml of a buffer containing 10 mm Na2 HPO4 --NaH2 PO4, 0.145 m NaCl and 0.4 g/l bovine serum albumin. The tubes are capped and tumbled at 37° C. At specific times all the 14 ml of the liquid buffer are removed and replaced with fresh liquid buffer.
The aqueous phase is then removed and the methylene chloride phase is dried under nitrogen. The residue is then dissolved in 60% acetonitrile: 40% water and the solution is injected on to a HPLC system using the following conditions: C8 column (Beckman Instruments USA), mobile phase of 58%:5%:37% acetonitrile: methanol: water at a flow rate of […].
For MTX the collected buffer is applied directly to the HPLC column with no need for extraction in methylene chloride. MTX is analyzed at 302 nm. For Vanadium containing compounds the liquid buffer is analyzed directly using a UV/VIS spectrometer in the 200 to 300 nm range.
Methotrexate ("MTX"; Sigma Chemical Co.) is ground in a pestle and mortar to reduce the particle size to below 5 microns. It is then mixed as a dry powder with polycaprolactone (molecular wt 18000 Birmingham Polymers, Ala. USA). The mixture is heated to 65° C. for 5 minutes and the molten polymer/methotrexate mixture is stirred into a smooth paste for 5 minutes. […]

Data set [2] is described as follows: Vanadyl sulfate release from PCL. The method, then: Vanadyl Sulfate (Fisher Scientific) is first ground in a pestle and mortar to reduce the particle size, then dispersed into melted PCL as described above for MTX. It is then taken up into a syringe to solidify and is ready for use.
Drug release was determined essentially as described above in Example 33, except that a 65 mg pellet of a 10% w/w VOSO4 :PCL was suspended in 10 ml of water and the supernatant analyzed for released Vanadyl Sulphate using UV/Vis absorbance spectroscopy of the peak in the 200 to 300 nm range.

Data set [3] in a line: Encapsulation of sodium suramin in ELVAX microspheres. The method, then: One milliliter of 5% ELVAX (poly(ethylene-vinyl acetate) cross-linked with 5% vinyl acetate) in dichloromethane ("DCM") is mixed with a fixed weight of sub-micron ground sodium suramin. This mixture is injected into 5 ml of 5% Polyvinyl Alcohol ("PVA") in water in a 30 ml flat bottomed test tube. Tubes containing different weights of the drug are then suspended in a multi-sample water bath at 40° for 90 minutes with automated stirring. The mixtures are removed, and microsphere samples taken for size analysis. Tubes are centrifuged at 1000 g for 5 min. The PVA supernatant is removed and saved for analysis (nonencapsulated drug). The microspheres are then washed (vortexed) in 5 ml of water and recentrifuged. The 5 ml wash is saved for analysis (surface bound drug). Microspheres are then wetted in 50 μl of methanol, and vortexed in 1 ml of DCM to dissolve the ELVAX. The microspheres are then warmed to 40° C., and 5 ml of 50° C. water is slowly added with stirring. This procedure results in the immediate evaporation of DCM, thereby causing the release of sodium suramin into the 5 ml of water.
All samples were assayed for drug content by quantification of fluorescence. Briefly, sodium suramin absorbs uv/vis with a lambda max of 312 nm. This absorption is linear in the 0 to 100 μg/ml range in both water and 5% PVA. […] This fluorescence is quantifiable in the 0 to 25 μg/ml range.

Molecules are shown by their SMILES. A value given as a limit tells only on which side of the number the result lay.

Take `CN(Cc1cnc2nc(N)nc(N)c2n1)c1ccc(C(=O)N[C@@H](CCC(=O)O)C(=O)O)cc1` [MTX]: the MTX release entry in data set [1] was “substantial amounts of MTX can be released from the polymer”.

For the molecule `O=S(=O)([O-])[O-].[O]=[V+2]` [VOSO4, vanadyl sulfate], the VOSO4 released came to 1 mg in data set [2] (6 hours, 65 mg pellet 10% w/w in water); 3 mg in data set [2] (2 days, 65 mg pellet 10% w/w in water); 5 mg in data set [2] (day 6, 65 mg pellet 10% w/w in water).

Regarding `Cc1ccc(C(=O)Nc2ccc(S(=O)(=O)O)c3cc(S(=O)(=O)O)cc(S(=O)(=O)O)c23)cc1NC(=O)c1cccc(NC(=O)Nc2cccc(C(=O)Nc3cc(C(=O)Nc4ccc(S(=O)(=O)O)c5cc(S(=O)(=O)O)cc(S(=O)(=O)O)c45)ccc3C)c2)c1` [suramin], the “drug encapsulated in 50 mg of ELVAX” value in data set [3] (50 mg ELVAX) is 50 µg. In addition, the “% encapsulation” value in data set [3] (ELVAX microspheres) is recorded as less than 1%.

For the origin of these results see patent publication US5886026A, “Anti-angiogenic compositions and methods of use” (priority 1994, dated 1999).
